# Test results published in PMC7156458, “Synthetic biology based construction of biological activity-related library of fungal decalin-containing diterpenoid pyrones” (Nature Communications, 2020).
# Molecular target: Aβ42 (Homo sapiens, UniProt P05067)
# Assay: Th-T (thioflavin-T) assay of Aβ42 aggregation
# Type: biochemical
# Details: for Th-T fluorescence of Aβ42 (sheet Fig. 7a), mean of three wells: head suffix _50 (concentration 50); for Th-T assay plate reading, mean of three wells (Supplementary Fig. 47): source data, Ab alone and No Ab as controls; for Th-T fluorescence, mean of three wells: Supplementary Fig. 47 source data
# Aβ42, sequence (P05067 672-713): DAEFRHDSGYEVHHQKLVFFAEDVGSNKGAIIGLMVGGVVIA
smiles,measurement,setting,value
C=C1CCC2C(C)(CCC=C(C)C)C(O)CCC2(C)C1Cc1c(OC)oc(C)c(C(=O)OC)c1=O (stereo not drawn) [Compound 14],"Th-T fluorescence of Aβ42 (sheet Fig. 7a), mean of three wells",reading M73,2.8491
same,"Th-T fluorescence of Aβ42 (sheet Fig. 7a), mean of three wells",reading M74,2.743
same,"Th-T fluorescence of Aβ42 (sheet Fig. 7a), mean of three wells",reading M75,2.678
same,"Th-T fluorescence of Aβ42 (sheet Fig. 7a), mean of three wells",reading M76,2.6047
same,"Th-T fluorescence of Aβ42 (sheet Fig. 7a), mean of three wells",reading M77,2.524
same,"Th-T fluorescence of Aβ42 (sheet Fig. 7a), mean of three wells",reading M78,2.476
same,"Th-T fluorescence of Aβ42 (sheet Fig. 7a), mean of three wells",reading M79,2.356
same,"Th-T fluorescence of Aβ42 (sheet Fig. 7a), mean of three wells",reading M80,2.329
same,"Th-T fluorescence of Aβ42 (sheet Fig. 7a), mean of three wells",reading M81,2.257
same,"Th-T fluorescence of Aβ42 (sheet Fig. 7a), mean of three wells",reading M82,2.201
same,"Th-T fluorescence of Aβ42 (sheet Fig. 7a), mean of three wells",reading M83,2.154
same,"Th-T fluorescence of Aβ42 (sheet Fig. 7a), mean of three wells",reading M84,2.095
same,"Th-T assay plate reading, mean of three wells (Supplementary Fig. 47)",measurement M1,0.2816
same,"Th-T assay plate reading, mean of three wells (Supplementary Fig. 47)",measurement M2,0.2424
same,"Th-T assay plate reading, mean of three wells (Supplementary Fig. 47)",measurement M3,0.24
same,"Th-T assay plate reading, mean of three wells (Supplementary Fig. 47)",measurement M4,0.2537
same,"Th-T assay plate reading, mean of three wells (Supplementary Fig. 47)",measurement M5,0.2619
same,"Th-T assay plate reading, mean of three wells (Supplementary Fig. 47)",measurement M6,0.2823
same,"Th-T assay plate reading, mean of three wells (Supplementary Fig. 47)",measurement M7,0.2966
same,"Th-T assay plate reading, mean of three wells (Supplementary Fig. 47)",measurement M8,0.3078
same,"Th-T assay plate reading, mean of three wells (Supplementary Fig. 47)",measurement M9,0.3225
same,"Th-T assay plate reading, mean of three wells (Supplementary Fig. 47)",measurement M10,0.3472
same,"Th-T assay plate reading, mean of three wells (Supplementary Fig. 47)",measurement M11,0.3856
same,"Th-T assay plate reading, mean of three wells (Supplementary Fig. 47)",measurement M12,0.4563
same,"Th-T assay plate reading, mean of three wells (Supplementary Fig. 47)",measurement M13,0.5559
same,"Th-T assay plate reading, mean of three wells (Supplementary Fig. 47)",measurement M14,0.6968
same,"Th-T assay plate reading, mean of three wells (Supplementary Fig. 47)",measurement M15,0.8869
same,"Th-T assay plate reading, mean of three wells (Supplementary Fig. 47)",measurement M16,1.062
same,"Th-T fluorescence, mean of three wells (Fig. 7a)","reading M107, compound at 10 (head suffix _10)",2.856
same,"Th-T fluorescence, mean of three wells (Fig. 7a)","reading M107, compound at 20 (head suffix _20)",1.717
same,"Th-T fluorescence, mean of three wells (Fig. 7a)","reading M107, compound at 50 (head suffix _50)",1.263
same,"Th-T fluorescence, mean of three wells (Fig. 7a)","reading M108, compound at 10 (head suffix _10)",2.848
same,"Th-T fluorescence, mean of three wells (Fig. 7a)","reading M108, compound at 20 (head suffix _20)",1.693
same,"Th-T fluorescence, mean of three wells (Fig. 7a)","reading M108, compound at 50 (head suffix _50)",1.239
same,"Th-T fluorescence, mean of three wells (Fig. 7a)","reading M109, compound at 10 (head suffix _10)",2.86
same,"Th-T fluorescence, mean of three wells (Fig. 7a)","reading M109, compound at 20 (head suffix _20)",1.668
same,"Th-T fluorescence, mean of three wells (Fig. 7a)","reading M109, compound at 50 (head suffix _50)",1.221
same,"Th-T fluorescence, mean of three wells (Fig. 7a)","reading M110, compound at 10 (head suffix _10)",2.89
same,"Th-T fluorescence, mean of three wells (Fig. 7a)","reading M110, compound at 20 (head suffix _20)",1.691
same,"Th-T fluorescence, mean of three wells (Fig. 7a)","reading M110, compound at 50 (head suffix _50)",1.198
same,"Th-T fluorescence, mean of three wells (Fig. 7a)","reading M111, compound at 10 (head suffix _10)",2.887
same,"Th-T fluorescence, mean of three wells (Fig. 7a)","reading M111, compound at 20 (head suffix _20)",1.674
same,"Th-T fluorescence, mean of three wells (Fig. 7a)","reading M111, compound at 50 (head suffix _50)",1.171
same,"Th-T fluorescence, mean of three wells (Fig. 7a)","reading M112, compound at 10 (head suffix _10)",2.867
same,"Th-T fluorescence, mean of three wells (Fig. 7a)","reading M112, compound at 20 (head suffix _20)",1.668
same,"Th-T fluorescence, mean of three wells (Fig. 7a)","reading M112, compound at 50 (head suffix _50)",1.153
same,"Th-T fluorescence, mean of three wells (Fig. 7a)","reading M113, compound at 10 (head suffix _10)",2.843
same,"Th-T fluorescence, mean of three wells (Fig. 7a)","reading M113, compound at 20 (head suffix _20)",1.686
same,"Th-T fluorescence, mean of three wells (Fig. 7a)","reading M113, compound at 50 (head suffix _50)",1.142
same,"Th-T fluorescence, mean of three wells (Fig. 7a)","reading M114, compound at 10 (head suffix _10)",2.88
same,"Th-T fluorescence, mean of three wells (Fig. 7a)","reading M114, compound at 20 (head suffix _20)",1.678
same,"Th-T fluorescence, mean of three wells (Fig. 7a)","reading M114, compound at 50 (head suffix _50)",1.107
same,"Th-T fluorescence, mean of three wells (Fig. 7a)","reading M115, compound at 10 (head suffix _10)",2.899
same,"Th-T fluorescence, mean of three wells (Fig. 7a)","reading M115, compound at 20 (head suffix _20)",1.649
same,"Th-T fluorescence, mean of three wells (Fig. 7a)","reading M115, compound at 50 (head suffix _50)",1.096
same,"Th-T fluorescence, mean of three wells (Fig. 7a)","reading M116, compound at 10 (head suffix _10)",2.891
same,"Th-T fluorescence, mean of three wells (Fig. 7a)","reading M116, compound at 20 (head suffix _20)",1.656
same,"Th-T fluorescence, mean of three wells (Fig. 7a)","reading M116, compound at 50 (head suffix _50)",1.094
same,"Th-T fluorescence, mean of three wells (Fig. 7a)","reading M117, compound at 10 (head suffix _10)",2.891
same,"Th-T fluorescence, mean of three wells (Fig. 7a)","reading M117, compound at 20 (head suffix _20)",1.6485
same,"Th-T fluorescence, mean of three wells (Fig. 7a)","reading M117, compound at 50 (head suffix _50)",1.063
same,"Th-T fluorescence, mean of three wells (Fig. 7a)","reading M118, compound at 10 (head suffix _10)",2.882
same,"Th-T fluorescence, mean of three wells (Fig. 7a)","reading M118, compound at 20 (head suffix _20)",1.636
same,"Th-T fluorescence, mean of three wells (Fig. 7a)","reading M118, compound at 50 (head suffix _50)",1.027
same,"Th-T fluorescence, mean of three wells (Fig. 7a)","reading M119, compound at 10 (head suffix _10)",2.895
same,"Th-T fluorescence, mean of three wells (Fig. 7a)","reading M119, compound at 20 (head suffix _20)",1.645
same,"Th-T fluorescence, mean of three wells (Fig. 7a)","reading M119, compound at 50 (head suffix _50)",1.02
same,"Th-T fluorescence, mean of three wells (Fig. 7a)","reading M120, compound at 10 (head suffix _10)",2.912
same,"Th-T fluorescence, mean of three wells (Fig. 7a)","reading M120, compound at 20 (head suffix _20)",1.644
same,"Th-T fluorescence, mean of three wells (Fig. 7a)","reading M120, compound at 50 (head suffix _50)",1.015
same,"Th-T fluorescence, mean of three wells (Fig. 7a)","reading M121, compound at 10 (head suffix _10)",2.89
same,"Th-T fluorescence, mean of three wells (Fig. 7a)","reading M121, compound at 20 (head suffix _20)",1.621
same,"Th-T fluorescence, mean of three wells (Fig. 7a)","reading M121, compound at 50 (head suffix _50)",1.008
same,"Th-T fluorescence, mean of three wells (Fig. 7a)","reading M122, compound at 10 (head suffix _10)",2.911
same,"Th-T fluorescence, mean of three wells (Fig. 7a)","reading M122, compound at 20 (head suffix _20)",1.5939
same,"Th-T fluorescence, mean of three wells (Fig. 7a)","reading M122, compound at 50 (head suffix _50)",0.9934
same,"Th-T fluorescence, mean of three wells (Fig. 7a)","reading M123, compound at 10 (head suffix _10)",2.8989
same,"Th-T fluorescence, mean of three wells (Fig. 7a)","reading M123, compound at 20 (head suffix _20)",1.589
same,"Th-T fluorescence, mean of three wells (Fig. 7a)","reading M123, compound at 50 (head suffix _50)",0.9605
same,"Th-T fluorescence, mean of three wells (Fig. 7a)","reading M124, compound at 10 (head suffix _10)",2.906
same,"Th-T fluorescence, mean of three wells (Fig. 7a)","reading M124, compound at 20 (head suffix _20)",1.657
same,"Th-T fluorescence, mean of three wells (Fig. 7a)","reading M124, compound at 50 (head suffix _50)",0.9345
same,"Th-T fluorescence, mean of three wells (Fig. 7a)","reading M125, compound at 10 (head suffix _10)",2.918
same,"Th-T fluorescence, mean of three wells (Fig. 7a)","reading M125, compound at 20 (head suffix _20)",1.601
same,"Th-T fluorescence, mean of three wells (Fig. 7a)","reading M125, compound at 50 (head suffix _50)",0.9471
same,"Th-T fluorescence, mean of three wells (Fig. 7a)","reading M126, compound at 10 (head suffix _10)",2.913
same,"Th-T fluorescence, mean of three wells (Fig. 7a)","reading M126, compound at 20 (head suffix _20)",1.6231
same,"Th-T fluorescence, mean of three wells (Fig. 7a)","reading M126, compound at 50 (head suffix _50)",0.9219
same,"Th-T fluorescence, mean of three wells (Fig. 7a)","reading M127, compound at 10 (head suffix _10)",2.92
same,"Th-T fluorescence, mean of three wells (Fig. 7a)","reading M127, compound at 20 (head suffix _20)",1.639
same,"Th-T fluorescence, mean of three wells (Fig. 7a)","reading M127, compound at 50 (head suffix _50)",0.9074
same,"Th-T fluorescence, mean of three wells (Fig. 7a)","reading M128, compound at 10 (head suffix _10)",2.916
same,"Th-T fluorescence, mean of three wells (Fig. 7a)","reading M128, compound at 20 (head suffix _20)",1.631
same,"Th-T fluorescence, mean of three wells (Fig. 7a)","reading M128, compound at 50 (head suffix _50)",0.8816
same,"Th-T fluorescence, mean of three wells",time-course reading M97,1.587
same,"Th-T fluorescence, mean of three wells",time-course reading M98,1.593
same,"Th-T fluorescence, mean of three wells",time-course reading M99,1.591
same,"Th-T fluorescence, mean of three wells",time-course reading M100,1.596
same,"Th-T fluorescence, mean of three wells",time-course reading M101,1.605
same,"Th-T fluorescence, mean of three wells",time-course reading M102,1.603
same,"Th-T fluorescence, mean of three wells",time-course reading M103,1.613
same,"Th-T fluorescence, mean of three wells",time-course reading M104,1.605
same,"Th-T fluorescence, mean of three wells",time-course reading M105,1.614
same,"Th-T fluorescence, mean of three wells",time-course reading M106,1.61
same,"Th-T fluorescence, mean of three wells",time-course reading M107,1.627
same,"Th-T fluorescence, mean of three wells",time-course reading M108,1.622
same,"Th-T fluorescence, mean of three wells",time-course reading M109,1.637
same,"Th-T fluorescence, mean of three wells",time-course reading M110,1.6366
same,"Th-T fluorescence, mean of three wells",time-course reading M111,1.648
same,"Th-T fluorescence, mean of three wells",time-course reading M112,1.658
same,"Th-T fluorescence, mean of three wells",time-course reading M113,1.641
same,"Th-T fluorescence, mean of three wells",time-course reading M114,1.648
same,"Th-T fluorescence, mean of three wells",time-course reading M115,1.646
same,"Th-T fluorescence, mean of three wells",time-course reading M116,1.651
